Test results as given in patent US8022035B2, “Y4 selective receptor agonists for therapeutic interventions” (7TM Pharma A/S, priority 2005, dated 2011).
Like-named read-outs stand apart in the source and are kept apart here. Where no end group is shown, it is not given here.

Key:
Format in all cases: cell-based
[1] = biological target: T1, human Y2 receptor (Homo sapiens, UniProt P49146); assay: Human Y2 receptor potency assay (inositol phosphate turnover)
T1 construct: expressed in transfected cells; host or cells: COS-7 cells, transient transfection, co-transfected with Gqi5
T1 sequence (P49146 1-381): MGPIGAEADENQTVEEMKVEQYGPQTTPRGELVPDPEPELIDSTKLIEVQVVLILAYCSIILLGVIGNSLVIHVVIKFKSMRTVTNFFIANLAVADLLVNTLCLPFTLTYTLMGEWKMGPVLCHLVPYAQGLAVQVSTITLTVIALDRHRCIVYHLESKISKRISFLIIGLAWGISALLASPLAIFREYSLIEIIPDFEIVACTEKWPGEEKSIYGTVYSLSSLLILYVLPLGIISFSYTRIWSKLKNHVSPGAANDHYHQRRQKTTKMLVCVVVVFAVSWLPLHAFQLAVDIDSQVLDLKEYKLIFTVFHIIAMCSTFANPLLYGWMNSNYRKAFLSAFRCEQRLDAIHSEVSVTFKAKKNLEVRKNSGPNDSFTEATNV
Method: Potency of the test compounds on the human Y2 receptor is determined by performing dose-response experiments in COS-7 cells transiently transfected with the human Y2 receptor as well as a promiscuous G protein, Gqi5 which ensures that the Y2 receptor couples through a Gq pathway leading to an increase in inositol phosphate turnover. […] After stimulation with various concentrations of peptide for 45 min at 37 C, cells are extracted with 10% ice-cold perchloric acid followed by incubation on ice for 30 min. […] Determinations are made in duplicates.

[2] = biological target: T2, human Y1 receptor (Homo sapiens, UniProt P25929); assay: Human Y1 receptor potency assay (inositol phosphate turnover)
T2 construct: expressed in transfected cells; host or cells: COS-7 cells
T2 sequence (P25929 1-384): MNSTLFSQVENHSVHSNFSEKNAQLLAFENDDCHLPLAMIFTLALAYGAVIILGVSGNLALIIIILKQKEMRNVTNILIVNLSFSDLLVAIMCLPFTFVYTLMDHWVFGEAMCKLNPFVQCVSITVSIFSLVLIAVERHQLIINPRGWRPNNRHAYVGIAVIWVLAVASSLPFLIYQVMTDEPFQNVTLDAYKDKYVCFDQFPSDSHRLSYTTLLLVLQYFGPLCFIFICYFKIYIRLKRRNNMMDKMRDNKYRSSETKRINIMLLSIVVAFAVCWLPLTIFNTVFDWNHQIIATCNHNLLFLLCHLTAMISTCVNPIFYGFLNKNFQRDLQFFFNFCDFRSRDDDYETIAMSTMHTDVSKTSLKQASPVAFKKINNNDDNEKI
Method: Cells are washed twice in buffer, 20 mM HEPES, pH 7.4, supplemented with 140 mM NaCl, 5 mM KCl, 1 mM MgSO4, 1 mM CaCl2, 10 mM glucose, 0.05% (w/v) bovine serum; and are incubated in 0.5 ml buffer supplemented with 10 mM LiCl at 37 C for 30 min. After stimulation with various concentrations of peptide for 45 min at 37 C, cells are extracted with 10% ice-cold perchloric acid followed by incubation on ice for 30 min. The resulting supernatants are neutralized with KOH in HEPES buffer, and the generated [3H]-inositol phosphate are purified on Bio-Rad AG 1-X8 anion-exchange resin and counted in a beta counter. Determinations are made in duplicates. EC50 values were calculated using a standard pharmacological data handling software, Prism 3.0 (graphpad Sofware, San Diego, USA).
Protocol as for the Y2 potency assay, except that human Y1-transformed COS-7 cells are used.

[3] = biological target: T3, human Y4 receptor (Homo sapiens, UniProt P50391); assay: Human Y4 receptor potency assay (inositol phosphate turnover)
T3 construct: expressed in transfected cells; host or cells: COS-7 cells
Method: After stimulation with various concentrations of peptide for 45 min at 37 C, cells are extracted with 10% ice-cold perchloric acid followed by incubation on ice for 30 min. The resulting supernatants are neutralized with KOH in HEPES buffer, and the generated [3H]-inositol phosphate are purified on Bio-Rad AG 1-X8 anion-exchange resin and counted in a beta counter. Determinations are made in duplicates. […] Protocol as for the Y2 potency assay, except that human Y4-transformed COS-7 cells are used.

[4] = COS-7 cells transiently transfected with human Y2 receptor and Gqi5, [3H]-inositol phosphate turnover, peptide 45 min at 37 C, read-out: hY2 EC50
[5] = human Y1-transformed COS-7 cells, [3H]-inositol phosphate turnover, peptide 45 min at 37 C, read-out: hY1 EC50

T3 sequence (P50391 whole entry): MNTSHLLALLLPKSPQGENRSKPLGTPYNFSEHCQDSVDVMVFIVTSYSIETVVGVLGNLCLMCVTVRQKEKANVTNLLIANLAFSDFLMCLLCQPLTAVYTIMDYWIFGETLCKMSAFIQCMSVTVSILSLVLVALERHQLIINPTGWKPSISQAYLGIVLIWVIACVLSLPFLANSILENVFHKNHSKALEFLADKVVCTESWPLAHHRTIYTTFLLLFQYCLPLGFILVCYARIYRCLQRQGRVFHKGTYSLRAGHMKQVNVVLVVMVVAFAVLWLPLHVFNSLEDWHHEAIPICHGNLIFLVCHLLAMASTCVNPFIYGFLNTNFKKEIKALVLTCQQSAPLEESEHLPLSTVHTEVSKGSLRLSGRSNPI

Compound	EC50 [1, 4] [µM]	EC50 [2, 5] [µM]	other results
CC[C@H](C)[C@H](NC(=O)[C@H](Cc1ccc(O)cc1)NC(=O)[C@H](CCCNC(=N)N)NC(=O)[C@H](CCCNC(=N)N)NC(=O)[C@H](CC(C)C)NC(=O)[C@H](CC(=O)O)NC(=O)[C@H](C)NC(=O)[C@H](C)NC(=O)[C@H](Cc1ccc(O)cc1)NC(=O)[C@H](CCC(N)=O)NC(=O)[C@H](C)NC(=O)[C@H](CCSC)NC(=O)[C@H](CCC(N)=O)NC(=O)[C@H](CCC(=O)O)NC(=O)[C@@H]1CCCN1C(=O)[C@@H](NC(=O)[C@H](C)NC(=O)[C@H](CC(N)=O)NC(=O)[C@H](CCC(=O)O)NC(=O)CNC(=O)[C@@H]1CCCN1C(=O)[C@H](Cc1ccc(O)cc1)NC(=O)[C@@H](NC(=O)[C@@H]1CCCN1C(=O)[C@H](CCC(=O)O)NC(=O)[C@H](CC(C)C)NC(=O)[C@@H]1CCCN1)C(C)C)[C@@H](C)O)C(=O)N[C@@H](CC(N)=O)C(=O)N[C@@H](CCSC)C(=O)N[C@@H](CC(C)C)C(=O)N[C@H](C(=O)N[C@@H](CCCNC(=N)N)C(=O)N1CCC[C@H]1C(=O)N[C@@H](CCCNC(=N)N)C(=O)N[C@@H](Cc1ccc(O)cc1)C(N)=O)[C@@H](C)O [[Glu-10]-PP(2-36), [Glu10]PP2-36]	–	–	EC50 [1]: > 1 µM
PLEPVYPGDNATPEQMAQYAADLRRYINTLTRPRY-NH2 [[Thr-30]-PP(2-36), [Thr30]PP2-36]	> 1	> 1	EC50 ([3]; human Y4-transformed COS-7 cells, [3H]-inositol phosphate turnover, peptide 45 min at 37 C, read-out: hY4 EC50): 0.00107 µM
PLEPVYPGENATPEQLAQYAADLRRYINTLTRPRY-NH2 [[Glu10;Leu17;Thr-30]-PP(2-36), [Glu10, Leu17, Thr30]PP2-36]	–	–	EC50 [3]: 0.00107 µM; EC50 [1]: > 1 µM; EC50 [2]: > 1 µM

Now from value to compound, other results behind:

EC50 [1, 4] [µM]	EC50 [2, 5] [µM]	Compound	other results
> 1	–	CCCC[C@H](NC(=O)[C@H](CCC(N)=O)NC(=O)[C@H](CCC(=O)O)NC(=O)[C@@H]1CCCN1C(=O)[C@@H](NC(=O)[C@H](C)NC(=O)[C@H](CC(N)=O)NC(=O)[C@H](CC(=O)O)NC(=O)CNC(=O)[C@@H]1CCCN1C(=O)[C@H](Cc1ccc(O)cc1)NC(=O)[C@@H](NC(=O)[C@@H]1CCCN1C(=O)[C@H](CCC(=O)O)NC(=O)[C@H](CC(C)C)NC(=O)[C@@H]1CCCN1)C(C)C)[C@@H](C)O)C(=O)N[C@@H](C)C(=O)N[C@@H](CCC(N)=O)C(=O)N[C@@H](Cc1ccc(O)cc1)C(=O)N[C@@H](C)C(=O)N[C@@H](C)C(=O)N[C@@H](CC(=O)O)C(=O)N[C@@H](CC(C)C)C(=O)N[C@@H](CCCNC(=N)N)C(=O)N[C@@H](CCCNC(=N)N)C(=O)N[C@@H](Cc1ccc(O)cc1)C(=O)N[C@H](C(=O)N[C@@H](CC(N)=O)C(=O)N[C@@H](CCCC)C(=O)N[C@@H](CC(C)C)C(=O)N[C@H](C(=O)N[C@@H](CCCNC(=N)N)C(=O)N1CCC[C@H]1C(=O)N[C@@H](CCCNC(=N)N)C(=O)N[C@@H](Cc1ccc(O)cc1)C(N)=O)[C@@H](C)O)[C@@H](C)CC [[Nle17,Nle30]-PP(2-36), [Nle17, Nle30]PP2-36]	–
> 1	> 1	PLEPVYPGDNATPEQMAQYAADLRRYINALTRPRY-NH2 [[Ala-30]-PP(2-36), [Ala30]PP2-36]	–
> 1	> 1	PLEPVYPGDNATPEQMAQYAADLRRYINNLTRPRY-NH2 [[Asn-30]-PP(2-36), [Asn30]PP2-36]	–
> 1	> 1	PLEPVYPGDNATPEQMAQYAADLRRYINQLTRPRY-NH2 [[Gln-30]-PP(2-36), [Gln30]PP2-36]	–
